pIC50: −log10 of the molar value. Active and inactive are the calls of the source. No cut-off for these calls is given here.
Experiments:
[1] = system: Drosophila melanogaster; test: Inhibition of oxidative stress in y-GAL4 driven UAS-amyloid beta (1 to 42) induced Drosophila melanogaster Oregon R-positive assessed as reduction in ROS level at 50 uM incubated for 30 mins by H2DCFDA staining based analysis; assay type: functional, organism-based
[2] = Toxicity in Drosophila melanogaster Oregon R-positive assessed as reduction in eclosed flies at 400 uM measured for 15 days relative to control; set-up: scale not given: the % may be the effect or the level left; conditions: 360 h, time 15 day
[3] = system: Drosophila melanogaster; test: Anti-alzheimer activity in ey-GAL4 driven UAS-amyloid beta (1 to 42) induced Drosophila melanogaster Oregon R-positive assessed as reduction in superoxide level at 100 uM by fluorescence based analysis; assay type: functional, organism-based
[4] = system: Drosophila melanogaster; test: Anti-alzheimer activity in ey-GAL4 driven UAS-amyloid beta (1 to 42) induced Drosophila melanogaster Oregon R-positive assessed as mild eye phenotype at 100 uM by Stereo zoom microscopic imaging analysis relative to control; assay type: functional
[5] = molecular target: T1, Acetylcholinesterase (Homo sapiens, UniProt P22303); test: Displacement of propidium iodide from human AChE PAS assessed as reduction in fluorescence intensity at 0.1 uM incubated for 6 hrs by fluorescence based analysis relative to control; set-up: scale not given: the % may be the effect or the level left
T1 sequence (P22303 whole entry): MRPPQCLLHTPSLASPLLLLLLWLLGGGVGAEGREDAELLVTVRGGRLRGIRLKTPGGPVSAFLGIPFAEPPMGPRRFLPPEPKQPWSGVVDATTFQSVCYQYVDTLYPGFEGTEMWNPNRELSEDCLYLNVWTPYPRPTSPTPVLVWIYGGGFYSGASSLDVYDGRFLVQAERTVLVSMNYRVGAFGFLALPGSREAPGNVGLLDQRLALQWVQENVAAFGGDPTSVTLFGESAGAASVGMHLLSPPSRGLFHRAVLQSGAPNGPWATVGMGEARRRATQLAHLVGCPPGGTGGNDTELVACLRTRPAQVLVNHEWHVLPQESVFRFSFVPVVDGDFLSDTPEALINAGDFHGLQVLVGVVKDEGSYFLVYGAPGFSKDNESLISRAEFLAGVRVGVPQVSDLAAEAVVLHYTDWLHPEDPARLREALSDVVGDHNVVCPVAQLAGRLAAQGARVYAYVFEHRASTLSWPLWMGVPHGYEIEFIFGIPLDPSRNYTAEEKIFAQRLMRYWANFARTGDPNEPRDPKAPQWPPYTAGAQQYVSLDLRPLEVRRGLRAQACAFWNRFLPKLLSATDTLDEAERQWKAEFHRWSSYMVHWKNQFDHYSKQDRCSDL

[6] = Toxicity in Drosophila melanogaster Oregon R-positive assessed as reduction in eclosed flies at 200 uM measured for 15 days relative to control; set-up: scale not given: the % may be the effect or the level left; conditions: 360 h, time 15 day
[7] = system: Mus musculus; test: Antialzheimer activity in scopolamine-induced Swiss albino mouse model assessed as improvement in memory retention by measuring time spent in platform quadrant at 3 mg/kg, po preincubated with compound for 30 mins followed by scopolamine induction and measured after 5 days by Morris water maze test; assay type: functional, organism-based; conditions: time 7230.0 min
[8] = system: Drosophila melanogaster; test: Anti-alzheimer activity in ey-GAL4 driven UAS-amyloid beta (1 to 42) induced Drosophila melanogaster Oregon R-positive assessed as rescued eye phenotype at 100 uM by Stereo zoom microscopic imaging analysis relative to control; assay type: functional
[9] = system: Mus musculus; test: Antialzheimer activity in scopolamine-induced Swiss albino mouse model assessed as reduction in BChE level at 3 mg/kg, po preincubated with compound for 30 mins followed by scopolamine induction and measured after 30 mins; assay type: functional, organism-based; conditions: time 1.0 hrs
[10] = Antioxidant activity assessed as DPPH radical scavenging activity at 200 uM incubated for 30 mins relative to control; assay type: functional
[11] = molecular target: T1, Acetylcholinesterase; test: Displacement of propidium iodide from human AChE PAS assessed as reduction in fluorescence intensity at 5 uM incubated for 6 hrs by fluorescence based analysis relative to control; set-up: scale not given: the % may be the effect or the level left
[12] = system: Drosophila melanogaster; test: Anti-alzheimer activity in ey-GAL4 driven UAS-amyloid beta (1 to 42) induced Drosophila melanogaster Oregon R-positive assessed as mild eye phenotype at 50 uM by Stereo zoom microscopic imaging analysis relative to control; assay type: functional
[13] = system: Drosophila melanogaster; test: Anti-alzheimer activity in ey-GAL4 driven UAS-amyloid beta (1 to 42) induced Drosophila melanogaster Oregon R-positive assessed as severe eye phenotype at 50 uM by Stereo zoom microscopic imaging analysis relative to control; assay type: functional
[14] = molecular target: T1, Acetylcholinesterase; test: Displacement of propidium iodide from human AChE PAS assessed as reduction in fluorescence intensity at 1 uM incubated for 6 hrs by fluorescence based analysis relative to control; set-up: scale not given: the % may be the effect or the level left
[15] = Toxicity in Drosophila melanogaster Oregon R-positive assessed as reduction in eclosed flies at 100 uM measured for 15 days relative to control; set-up: scale not given: the % may be the effect or the level left; conditions: 360 h, time 15 day
[16] = Toxicity in Drosophila melanogaster Oregon R-positive assessed as reduction in eclosed flies at 50 uM measured for 15 days relative to control; set-up: scale not given: the % may be the effect or the level left; conditions: 360 h, time 15 day
[17] = molecular target: T1, Acetylcholinesterase; test: Displacement of propidium iodide from human AChE PAS assessed as reduction in fluorescence intensity at 0.01 uM incubated for 6 hrs by fluorescence based analysis relative to control; set-up: scale not given: the % may be the effect or the level left
[18] = system: Mus musculus; test: Antioxidant activity against scopolamine-induced Swiss albino mouse model assessed as increase in SOD level at 3 mg/kg, po by absorbance based analysis; assay type: functional, organism-based
[19] = molecular target: Cholinesterase (Equus caballus, UniProt P81908); test: Inhibition of equine serum BChE using acetylthiocholine iodide as substrate preincubated with compound for 30 mins followed by substrate addition and measured after 30 mins by DTNB reagent based Ellman's method
Chain of Cholinesterase (P81908 whole entry): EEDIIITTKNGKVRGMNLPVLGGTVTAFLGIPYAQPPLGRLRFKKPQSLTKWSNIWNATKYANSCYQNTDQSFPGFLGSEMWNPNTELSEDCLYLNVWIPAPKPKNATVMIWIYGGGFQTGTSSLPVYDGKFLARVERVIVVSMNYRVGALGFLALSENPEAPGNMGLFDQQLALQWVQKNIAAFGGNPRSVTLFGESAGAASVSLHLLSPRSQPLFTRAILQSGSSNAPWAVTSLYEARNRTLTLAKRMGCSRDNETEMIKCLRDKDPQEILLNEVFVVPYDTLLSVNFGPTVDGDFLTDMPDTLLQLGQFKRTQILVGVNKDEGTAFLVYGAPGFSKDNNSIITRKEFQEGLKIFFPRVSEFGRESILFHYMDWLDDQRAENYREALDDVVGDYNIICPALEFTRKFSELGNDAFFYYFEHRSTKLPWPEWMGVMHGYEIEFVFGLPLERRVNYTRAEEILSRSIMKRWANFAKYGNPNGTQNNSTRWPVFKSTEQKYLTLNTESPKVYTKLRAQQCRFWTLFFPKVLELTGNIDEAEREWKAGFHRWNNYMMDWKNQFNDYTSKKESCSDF

[20] = molecular target: T1, Acetylcholinesterase; test: Inhibition of human recombinant AChE expressed in HEK293 cells using acetylthiocholine iodide as substrate preincubated with compound for 30 mins followed by substrate addition and measured after 30 mins by DTNB reagent based Ellman's method

SMILES: CCN(C)C(=O)Oc1cccc([C@H](C)N(C)C)c1 [RIVASTIGMINE]
- Activity [1]: Active
- Activity [2]: 29%
- Activity [3]: Active
- Activity [4]: 40%
- Activity [5]: 2.96%
- Activity [6]: 73%
- Activity [7]: Active
- Activity [8]: 33%
- Activity [9]: Active
- Activity [10]: 3.71%
- Activity [11]: 8.74%
- Activity [12]: 43%
- Activity [13]: 23%
- Activity [14]: 6.3%
- Activity [15]: 95%
- Activity [16]: 108%
- Activity [17]: 1.61%
- Activity [18]: Active

SMILES: COc1ccc2[nH]cc(CCNC(=O)Oc3cccc(C(C)N(C)C)c3)c2c1 (configuration not stated)
- pIC50 [19]: 7.87
- pIC50 [20]: 7.32

SMILES: C[C@@H](c1cccc(OC(=O)NCCc2c[nH]c3ccccc23)c1)N(C)C
- pIC50 [19]: 7.96
- pIC50 [20]: 7.65

Source: ChEMBL document CHEMBL6074689 (Eur J Med Chem, 2025)
